From patent publication US20240336679A1, “METHODS FOR THE TREATMENT OF CANCER” (INSTITUT REGIONAL DU CANCER DE MONTPELLIER, priority 2021, published 2024)
Where a name gives a salt, the structure may show the parent alone.

How the values were obtained:
XG-6 cells = assay: Growth of IL-6 dependent cell line XG-6; format: cell-based; conditions: FIG. 3; RPMI, 2 ng/ml, 3 days; no growth without IL-6
Experimental: 50 000 XG-6 cells (IL-6 dependent cell line) were seeded in an equal number in four plastic dishes and cultured in suspension in 2 ml of RPMI (Gibco) medium at 37° C./5% CO2 for 3 days. The fourth dishes' conditions are as follows: • XG-6 cells cultured in 2 ml of RPMI in the presence of 2 ng/ml of recombinant IL-6 (obtained with the method illustrated in Wijdenes et al., Mol Immunol, 28 (1991), p. 1183) • XG-6 cells cultured in 2 ml of RPMI, • XG-6 cells cultured in 2 ml of MCF7 cell lines supernatant as previously obtained, • XG-6 cells cultured in 2 ml of IB115 cell lines supernatant as previously obtained.

[1] = system: cancer cells exhibiting recruitment of MDM2 to chromatin (C-MDM2 (+)); assay: Cell viability / IC50 measurement (SRB assay) upon SP141 treatment; format: cell-based, human; conditions: FIG. 8; as soon as 24 hours after treatment with low concentrations
Experimental: Cell survival after SP141, IL-6, IL-6 inhibitor and/or serine/glycine deprived diet treatment (IC50) was determined using the Sulforhodamine B assay (SRB assay). Cells were seeded in 96-well plates (Sarsted) in complete DMEM medium as to obtain triplicates for each conditions (5 000 cells/well). After 24 h, serial dilutions of the indicated compounds were added to the cells. […] Fixed SRB was finally dissolved in 10 mM Tris-HCl solution and 560 nm absorbance was read using a PHERAstar FSX plate reader.

[2] = system: PHGDH, PSAT1 and PSPH mRNA in C2C12 myoblasts cocultured with IB115 liposarcoma cells; assay: shRNA assay: RT-qPCR of serine synthesis genes in C2C12 myoblasts cocultured with IB115 cells depleted of human IL-6; format: cell-based, mouse; conditions: FIG. 4, myocytes cultured with LPS (IB115) and treated with shIL-6
Experimental: (§1) Total mRNAs were isolated from myoblasts (C2C12 cells) using TRIzol Reagent (Invitrogen) as previously described (Riscal et al. Mol Cell. 2016 Jun. 16; 62 (6): 890-902). Afterwards, Reverse Transcription of 1 μg mRNA into cDNA was performed using SuperScript III Reverse Transcriptase (Invitrogen), according to the manufacturer protocol. Quantification of the produced cDNA was achieve by Real-time quantitative PCRs on a LightCycler 480 SW 1.5 apparatus (Roche) using SYBR Green mix (Ozyme) plus the oligonucleotides of interest, and the following amplification protocol: 45 cycles of 95° C. for 4 s, 60° C. for 10 s, and 72° C. for 15 s. Analysis of the relative gene expression (mRNA copy number) was realized using Ct values and the 2^−ΔCt method, normalized on at least two different housekeeping genes (TBP, Tubuline, RPL13a, Gus B, β-microglobuline).
Relative quantities of mRNA of MDM2 direct target genes PHGDH, PSAT1 and PSPH were determined by RT qPCR in C2C12 myoblasts cultured alone or in coculture with IB115 cells treated or not for shRNA mediated depletion of human IL-6 (shIL-6). Data were normalized to the corresponding control samples prepared from IB115 cells treated with a control shRNA (mean SD n=3 independent experiments) Statistical significance was evaluated using non parametric Mann Whitney U tests.

[3] = system: PHGDH, PSAT1 and PSPH mRNA in C2C12 myoblasts cocultured with IB115 liposarcoma cells; assay: Anti-IL-6 assay: RT-qPCR of serine synthesis genes in C2C12 myoblasts cocultured with IB115 cells treated with IL-6 signaling inhibitors; format: cell-based, mouse; conditions: FIG. 11; for IL-6 dependent enhancement of the serine synthesis way (PHGDH, PSAT, PSPH mRNA): C2C12 myoblasts cocultured with IB115; for PSPH relative mRNA level: co-culture myoblasts with LPS, without inhibitors about 3.1; for PHGDH relative mRNA level / PSAT1 relative mRNA level: co-culture myocytes with LPS; for PHGDH relative mRNA level: without inhibitors 1.6; for PSAT1 relative mRNA level: without inhibitors about 2
Experimental: as §1
Relative quantities of mRNA of MDM2 direct target genes PHGDH, PSAT1 and PSPH were determined by RT-qPCR in C2C12 cells culture alone or in coculture with IB115 cells treated or not with a blocking anti-IL-6 antibody (Wijdenes et al., Mol Immunol, 28 (1991), p. 1183),i.e., IL-6 receptor inhibitor such as Bazedoxifène, or STAT3 inhibitors such as C188-9 and Stattic (mean+/−SD; n=3 independent experiments). Statistical significance was evaluated using non-parametric Mann-Whitney U tests.

recombinant IL-6: recombinant IL-6 obtained with the method of Wijdenes et al.; positive control for XG-6 growth
Quantity of XG-6 cells (XG-6 cells): more than 150000 AU

COc1ccc2[nH]c3c(-c4cccc5ccccc45)nccc3c2c1 [SP141]
cell viability of cancer cells C-MDM2 (+) [1]: important loss of cell viability

shIL-6: shRNA to inactivate human IL-6 expression; a sequence may be 5′-GACACTATTTTAATTATTTTTAA-3′ (shRNA, chemistry and expression mode not given here, further chemistry not given here)
relative mRNA level of PSAT ([2]; myocytes alone about 1, with LPS about 1.75): about 1 AU | relative mRNA level of PSPH ([2]; myocytes alone about 1, with LPS about 2.5): about 1 AU | relative mRNA level of PHGDH ([2]; myocytes alone about 1, with LPS about 4.4): about 1.75 AU

COc1ccc(S(=O)(=O)Nc2cc(-c3c(O)ccc4ccccc34)c(O)c3ccccc23)cc1 [C188-9]
IL-6 dependent enhancement of the serine synthesis way (PHGDH, PSAT, PSPH mRNA) ([3]; 10 nM): decreases | PSPH relative mRNA level ([3]; 10 nM): about 1.5 A.U | PHGDH relative mRNA level ([3]; 10 nM): about 0.5 A.U | PSAT1 relative mRNA level ([3]; 10 nM): about 1.3 A.U

Cc1c(-c2ccc(O)cc2)n(Cc2ccc(OCCN3CCCCCC3)cc2)c2ccc(O)cc12 [BZA, 1-[[4-[2-(Hexahydro-1H-azepin-1-yl)ethoxy]phenyl]methyl]-2-(4-hydroxyphenyl)-3-methyl-1H-indol-5-ol monoacetate (salt)]
PSPH relative mRNA level ([3]; 100 nM): about 1.8 A.U | PHGDH relative mRNA level ([3]; 100 nM): about 0.6 A.U | PSAT1 relative mRNA level ([3]; 100 nM): about 1.3 A.U

O=[N+]([O-])c1ccc2c(c1)S(=O)(=O)C=C2 [Stattic]
IL-6 dependent enhancement of the serine synthesis way (PHGDH, PSAT, PSPH mRNA) ([3]; 10 nM): decreases | PSPH relative mRNA level ([3]; 10 nM): about 1.75 A.U | PSAT1 relative mRNA level ([3]; 10 nM): ~1.5 A.U
